Conditions: pH 2.7, LogP, HPLC on reversed phase columns, pH 2.7, 0.1% formic acid in water / acetonitrile gradient
Description: Measurement of log P values was performed according EEC directive 79/831 Annex V.A8 by HPLC (High Performance Liquid Chromatography) on reversed phase columns with the following method:
Measurement of LC-MS was done at pH 2.7 with 0.1% formic acid in water and with acetonitrile (contains 0.1% formic acid) as eluent with a linear gradient from 10% acetonitrile to 95% acetonitrile.
Calibration was done with not branched alkan2-ones (with 3 to 16 carbon atoms) with known log P-values (measurement of log P values using retention times with linear interpolation between successive alkanones). lambda-maX-values were determined using UV-spectra from 200 nm to 400 nm and the peak values of the chromatographic signals.

SMILES | chromatographic logP
Cn1oc(=O)nc1/C(=N\OCc1cccc(N)n1)c1ccccc1 [Example 11, 3-[(Z)-{[(6-aminopyridin-2-yl)methoxy]imino}(phenyl)methyl]-2-methyl-1,2,4-oxadiazol-5(2H)-one] | 0.84
COc1cccc(C(=NOCc2cccc(N)n2)c2nc(=O)on2C)c1 [Example 24] | 1.03
CC(C)n1oc(=O)nc1C(=NOCc1cccc(NC(=O)OC(C)(C)C)n1)c1ccccc1 [Example 41] | 3.8
COCCn1oc(=O)nc1C(=NOCc1cccc(NC(=O)OC(C)(C)C)n1)c1ccccc1 [Example 42] | 3.61
COc1cccc(C(=NOCc2cccc(NC(=O)c3cccc(C)c3)n2)c2nc(=O)o[nH]2)c1 [Example 61] | 3.31
COc1cccc(C(=NOCc2cccc(NC(=O)c3ccc(F)cc3)n2)c2nc(=O)o[nH]2)c1 [Example 62] | 3.09
COc1cccc(C(=NOCc2cccc(NC(=O)c3ccccc3)n2)c2nc(=O)o[nH]2)c1 [Example 67] | 2.96
Cc1ccc(C(=O)Nc2cccc(CON=C(c3cccc(F)c3)c3nc(=O)o[nH]3)n2)cc1 [Example 77] | 3.33
Cc1cccc(C(=NOCc2cccc(NC(=O)CCc3ccccc3)n2)c2nc(=O)on2C)c1 [Example 79] | 3.48
Cc1cccc(C(=NOCc2cccc(NC(=O)Cc3ccccc3)n2)c2nc(=O)on2C)c1 [Example 81] | 3.23
Cc1cccc(C(=O)Nc2cccc(CON=C(c3cccc(C)c3)c3nc(=O)on3C)n2)c1 [Example 86] | 3.55
COc1cccc(C(=O)Nc2cccc(CON=C(c3cccc(C)c3)c3nc(=O)on3C)n2)c1 [Example 88] | 3.31
Cn1oc(=O)nc1C(=NOCc1cccc(NC(=O)c2ccccc2)n1)c1cccc(F)c1 [Example 89] | 3
CC(C)CC(=O)Nc1cccc(CON=C(c2cccc(F)c2)c2nc(=O)on2C)n1 [Example 90] | 2.92
Cc1cccc(C(=NOCc2cccc(NC(=O)OCCC(C)C)n2)c2nc(=O)on2C)c1 [Example 91] | 4.03
Cn1oc(=O)nc1C(=NOCc1cccc(NC(=O)c2ccc(F)cc2)n1)c1cccc(F)c1 [Example 92] | 3.15
COc1cccc(C(=NOCc2cccc(NC(=O)C(C)(C)C)n2)c2nc(=O)on2C)c1 [Example 93] | 2.92
C#CCOC(=O)Nc1cccc(CON=C(c2cccc(OC)c2)c2nc(=O)on2C)n1 [Example 95] | 2.63
Cc1cccc(C(=NOCc2cccc(NC(=O)Cc3cccc(F)c3)n2)c2nc(=O)on2C)c1 [Example 98] | 3.31
C#CCOC(=O)Nc1cccc(CON=C(c2cccc(C)c2)c2nc(=O)on2C)n1 [Example 108] | 2.84
CCn1oc(=O)nc1C(=NOCc1cccc(N)n1)c1ccccc1 [Example 111] | 1.07
Cn1oc(=O)nc1C(=NOCc1cccc(NC(=O)OC(C)(C)C)n1)c1cccc(F)c1F [Example 113] | 3.39
Cn1oc(=O)nc1C(=NOCc1cccc(NC(=O)CC2CCCC2)n1)c1ccccc1 [Example 115] | 3.29
Cn1oc(=O)nc1C(=NOCc1cccc(NC(=O)C2CCCC2)n1)c1ccccc1 [Example 117] | 2.98
Cn1oc(=O)nc1C(=NOCc1cccc(NC(=O)OCCC2CCCC2)n1)c1ccccc1 [Example 118] | 4.26
Cn1oc(=O)nc1C(=NOCc1cccc(NC(=O)CCc2ccccc2)n1)c1ccccc1 [Example 119] | 3.21

SMILES | chromatographic logP
CCCCCCC(=O)Nc1cccc(CON=C(c2ccccc2)c2nc(=O)on2C)n1 [Example 120] | 3.65
Cn1oc(=O)nc1C(=NOCc1cccc(NC(=O)OCC(C)(C)C)n1)c1ccccc1 [Example 121] | 3.7
C#CCCCOC(=O)Nc1cccc(CON=C(c2ccccc2)c2nc(=O)on2C)n1 [Example 122] | 2.94
C=CCCCCOC(=O)Nc1cccc(CON=C(c2ccccc2)c2nc(=O)on2C)n1 [Example 123] | 3.76
C#CCCCCOC(=O)Nc1cccc(CON=C(c2ccccc2)c2nc(=O)on2C)n1 [Example 124] | 3.21
C#CCC(C)OC(=O)Nc1cccc(CON=C(c2ccccc2)c2nc(=O)on2C)n1 (stereo not shown) [Example 125] | 2.98
Cn1oc(=O)nc1C(=NOCc1cccc(NC(=O)Cc2ccccc2)n1)c1ccccc1 [Example 126] | 2.94
Cn1oc(=O)nc1C(=NOCc1cccc(NC(=O)OCC2CCCCC2)n1)c1ccccc1 [Example 127] | 4.24
Cc1cccc(C(=O)Nc2cccc(CON=C(c3ccccc3)c3nc(=O)on3C)n2)c1 [Example 128] | 3.27
C=CCCCOC(=O)Nc1cccc(CON=C(c2ccccc2)c2nc(=O)on2C)n1 [Example 129] | 3.41
Cn1oc(=O)nc1C(=NOCc1cccc(NC(=O)OCCCC2CCCC2)n1)c1ccccc1 [Example 130] | 4.68
C#CCOC(=O)Nc1cccc(CON=C(c2ccccc2)c2nc(=O)on2C)n1 [Example 131] | 2.57
COc1cccc(C(=O)Nc2cccc(CON=C(c3ccccc3)c3nc(=O)on3C)n2)c1 [Example 132] | 3.02
Cn1oc(=O)nc1C(=NOCc1cccc(NC(=O)OCCCCl)n1)c1ccccc1 [Example 133] | 3.02
CC#CCOC(=O)Nc1cccc(CON=C(c2ccccc2)c2nc(=O)on2C)n1 [Example 134] | 2.84
Cn1oc(=O)nc1C(=NOCc1cccc(NC(=O)Cc2cccs2)n1)c1ccccc1 [Example 135] | 2.86
Cn1oc(=O)nc1C(=NOCc1cccc(NC(=O)C2(C)CCCCC2)n1)c1ccccc1 [Example 136] | 3.68
CCC#CCOC(=O)Nc1cccc(CON=C(c2ccccc2)c2nc(=O)on2C)n1 [Example 137] | 3.21
Cn1oc(=O)nc1C(=NOCc1cccc(NC(=O)OCCC2CC2)n1)c1ccccc1 [Example 138] | 3.39
Cn1oc(=O)nc1C(=NOCc1cccc(NC(=O)COc2ccccc2)n1)c1ccccc1 [Example 139] | 3.13
CC(Oc1ccccc1)C(=O)Nc1cccc(CON=C(c2ccccc2)c2nc(=O)on2C)n1 (stereo not shown) [Example 140] | 3.35
CC(OC(=O)Nc1cccc(CON=C(c2ccccc2)c2nc(=O)on2C)n1)C1CCCCC1 (stereo not shown) [Example 141] | 4.56
Cn1oc(=O)nc1C(=NOCc1cccc(NC(=O)c2csc3ccccc23)n1)c1ccccc1 [Example 142] | 3.65
Cn1oc(=O)nc1C(=NOCc1cccc(NC(=O)OCCCCCl)n1)c1ccccc1 [Example 143] | 3.27
CCCCC(C)C(=O)Nc1cccc(CON=C(c2ccccc2)c2nc(=O)on2C)n1 (stereo not shown) [Example 144] | 3.55
Cn1oc(=O)nc1C(=NOCc1cccc(NC(=O)CCC2CCCC2)n1)c1ccccc1 [Example 145] | 3.72

SMILES | chromatographic logP
Cn1oc(=O)nc1C(=NOCc1cccc(NC(=O)C2CCCCC2)n1)c1ccccc1 [Example 146] | 3.29
Cn1oc(=O)nc1C(=NOCc1cccc(NC(=O)CCC2CCCCC2)n1)c1ccccc1 [Example 147] | 4.06
C#CCCCC(=O)Nc1cccc(CON=C(c2ccccc2)c2nc(=O)on2C)n1 [Example 149] | 2.6
CC#CCC(C)OC(=O)Nc1cccc(CON=C(c2ccccc2)c2nc(=O)on2C)n1 (stereo not shown) [Example 151] | 3.31
C=CCC(C)OC(=O)Nc1cccc(CON=C(c2ccccc2)c2nc(=O)on2C)n1 (stereo not shown) [Example 152] | 3.39
Cn1oc(=O)nc1C(=NOCc1cccc(NC(=O)OCCCC2CCCCC2)n1)c1ccccc1 [Example 153] | 5.06
CC(C(=O)Nc1cccc(CON=C(c2ccccc2)c2nc(=O)on2C)n1)c1ccccc1 (stereo not shown) [Example 155] | 3.29
CC#CCCOC(=O)Nc1cccc(CON=C(c2ccccc2)c2nc(=O)on2C)n1 [Example 156] | 3
Cn1oc(=O)nc1C(=NOCc1cccc(NC(=O)c2ccc(F)cc2)n1)c1ccccc1 [Example 157] | 3.04
Cn1oc(=O)nc1C(=NOCc1cccc(NC(=O)OCCC2CCCCC2)n1)c1ccccc1 [Example 158] | 4.63
Cc1ccc(C(=O)Nc2cccc(CON=C(c3ccccc3)c3nc(=O)on3C)n2)cc1 [Example 159] | 3.23
Cn1oc(=O)nc1C(=NOCc1cccc(NC(=O)c2ccccc2)n1)c1ccccc1 [Example 160] | 2.92
CC(C)CCOC(=O)Nc1cccc(CON=C(c2ccccc2)c2nc(=O)on2C)n1 [Example 161] | 3.74
COc1cccc(C(=NOCc2cccc(NC(=O)OCCc3ccccc3)n2)c2nc(=O)on2C)c1 [Example 162] | 3.61
Cn1oc(=O)nc1C(=NOCc1cccc(NC(=O)OCc2ccccc2)n1)c1cccc(F)c1 [Example 163] | 3.5
COc1cccc(C(=NOCc2cccc(NC(=O)CCc3ccccc3)n2)c2nc(=O)on2C)c1 [Example 164] | 3.27
Cn1oc(=O)nc1C(=NOCc1cccc(NC(=O)OCCc2ccccc2)n1)c1cccc(F)c1 [Example 165] | 3.65
COc1cccc(C(=NOCc2cccc(NC(=O)Cc3ccccc3)n2)c2nc(=O)on2C)c1 [Example 166] | 3.02
Cc1cccc(C(=NOCc2cccc(NC(=O)OCc3ccccc3)n2)c2nc(=O)on2C)c1 [Example 167] | 3.68
Cc1cccc(C(=NOCc2cccc(NC(=O)OCCc3ccccc3)n2)c2nc(=O)on2C)c1 [Example 168] | 3.85
CCCCCC(=O)Nc1cccc(CON=C(c2ccccc2)c2nc(=O)on2CC)n1 [Example 174] | 3.52
CCCCCC(=O)Nc1cccc(CON=C(c2ccccc2)c2nc(=O)on2CCOC)n1 [Example 175] | 3.5
CCC(C)(C)C(=O)Nc1cccc(CON=C(c2ccccc2)c2nc(=O)on2C)n1 [Example 176] | 3.17
CC(OC(=O)Nc1cccc(CON=C(c2ccccc2)c2nc(=O)on2C)n1)C1CCCC1 (stereo not shown) [Example 179] | 4.15
